Source: patent publication US20230002393A1, “CDK KINASE INHIBITOR” (BEIJING BENICALL BIOTECH CO., LTD., priority 2019, published 2023)

Tests used:
[1] = molecular target: T1, CDK6/CyclinD1 (Homo sapiens, UniProt Q00534); experiment: In vitro cell-free CDK6/CyclinD1 kinase activity assay (TR-FRET); format: biochemical; conditions: ATP at Km
T1 construct: purchased Carna 04-114
Description: It should be noted that the assay can also be conducted by a similar method. The assay steps in this Test Example are as follows:
The CDK6/CyclinD1 kinase activity was determined using a time-resolved fluorescence resonance energy transfer (TR-FRET) method. Measurements were performed in a reaction volume of 20 μL using 384-well assay plates. […] The reaction was stopped by adding a mixture of a peptide antibody (trade name: Cisbio, product No. 64CUSKAY) and Sa-XL665 (trade name: Cisbio, product No. 610SAXLB) diluted in HTRF KinEASE detection buffer (trade name: Cisbio, product No. 62SDBRDF, containing EDTA). After the mixture was incubated for 1 hour at room temperature, the plate was read. The TR-FRET signal was measured on a multimode plate reader (EnVision™, a multi-function microplate detector, PerkinElmer) at an excitation wavelength (λEx) of 330 nm and detection wavelengths (λEm) of 615 and 665 nm. The activity was determined by the ratio of fluorescence at 665 nm to that at 615 nm. For each compound, the enzyme activities of different concentrations of the compound were measured to determine IC50. The negative control contained no inhibitor. Two no-enzyme controls were used to determine baseline fluorescence levels. IC50 was obtained by fitting using the GraphPad 6.02 software.
8-10 concentrations were prepared for each compound, and formulated in DMSO. The stock concentration was 200× the working concentration. For example, if the working concentration was 100 nM, the corresponding concentration of the formulated stock solution was 20 μM.
In the analysis of in vitro inhibitory activity on CDK kinase, the IC50 value of each of the Example compounds and Reference Example compounds was determined.

[2] = test system: MCF-7 cells; experiment: Cell viability assay, MCF-7 cells (CellTiter-Glo, 168 h); format: cell-based; conditions: Homo sapiens, MCF7
Description: An in vitro cell viability assay was conducted using some Example compounds following the steps below:
1. After recovery, MCF-7 cells (obtained from the Shanghai Cell Bank of the Chinese Academy of Sciences) were cultured at 37° C., 5% CO2, and 95% humidity.
2. 8 compound solutions at different concentrations were prepared for each Example compound. 50 μL of the compound solution at each concentration was added to a 96-well black plate.
3. The cell concentration was adjusted to about 30,000 cells/mL. 100 μL of the cell suspension was added to the 96-well plate, and mixed well to a final cell density of about 3,000 cells/well.
4. The 96-well plate was incubated at 37° C., 5% CO2, and 95% humidity for 168 h, i.e., 7 days.
5. The cell survival rate was measured by the method of CellTiter-Glo® Luminescent Cell Viability Assay (Promega, Cat #G7572). The fluorescence data were read on a microplate reader (EnVision™, a multi-function microplate detector, PerkinElmer).
6. The obtained fluorescence data were analyzed using the GraphPad Prism software. The cell survival rate was calculated for each Example compound at each concentration, and the IC50 interval of each Example compound was determined.

T1 sequence (Q00534 whole entry): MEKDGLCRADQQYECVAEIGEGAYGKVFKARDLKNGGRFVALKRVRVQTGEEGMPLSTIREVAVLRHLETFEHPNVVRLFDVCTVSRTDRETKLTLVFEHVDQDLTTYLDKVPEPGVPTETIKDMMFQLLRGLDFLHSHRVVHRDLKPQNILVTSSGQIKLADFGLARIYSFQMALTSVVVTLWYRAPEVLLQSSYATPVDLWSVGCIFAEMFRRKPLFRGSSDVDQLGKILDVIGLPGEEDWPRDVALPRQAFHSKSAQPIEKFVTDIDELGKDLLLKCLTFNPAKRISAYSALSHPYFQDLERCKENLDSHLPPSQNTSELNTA
T1 sequence (P24385 whole entry partner): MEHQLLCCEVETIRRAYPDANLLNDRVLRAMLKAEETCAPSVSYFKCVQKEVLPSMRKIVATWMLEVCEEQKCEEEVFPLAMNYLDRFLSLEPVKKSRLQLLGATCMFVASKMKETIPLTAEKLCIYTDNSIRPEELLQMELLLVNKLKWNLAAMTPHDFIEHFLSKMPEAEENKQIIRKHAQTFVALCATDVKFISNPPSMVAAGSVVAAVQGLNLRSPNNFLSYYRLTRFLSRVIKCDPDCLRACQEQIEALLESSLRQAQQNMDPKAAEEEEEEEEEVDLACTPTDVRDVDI

Compound | IC50 [1] [nM] | IC50 [2] [nM]
C1=C(c2ccc3cnc(Nc4ccc(N5CCNCC5)cc4)nn23)CCC1 [Example 4] | 100 to 1000 | < 500
CN1CCN(c2ccc(Nc3ncc4ccc(C5=CCCC5)n4n3)cc2)CC1 [Example 5] | 100 to 1000 | < 500
N#Cc1cc2cnc(Nc3ccc(N4CCNCC4)cc3)nn2c1-c1cccc2cccnc12 [Example 15] | 100 to 1000 | < 500
Cc1noc(C)c1-c1cc2cnc(Nc3ccc(N4CCNCC4)cn3)nn2c1-c1ccc(F)cc1 [Example 20] | 100 to 1000 | 500 to 2500
Cc1noc(C)c1-c1cc2cnc(Nc3ccc(N4CCNCC4)cn3)nn2c1C1=CCCC1 [Example 21] | 100 to 1000 | 500 to 2500
Cc1nn(C)cc1-c1cc2cnc(Nc3ccc(N4CCNCC4)cn3)nn2c1C1=CCCC1 [Example 23] | 100 to 1000 | < 500
N#Cc1cc2cnc(Nc3ccc(N4CCNCC4)cn3)nn2c1-c1cccnc1 [Example 27] | 100 to 1000 | 2500 to 10000
N#Cc1cc2cnc(Nc3ccc(N4CCNCC4)cn3)nn2c1C1=CCC(=O)CC1 [Example 30] | 100 to 1000 | 2500 to 10000
CN(C)C(=O)c1cc2cnc(Nc3ccc(N4CCNCC4)cn3)nn2c1-c1ccc(F)cc1 [Example 32] | < 100 | < 500
CN(C)C(=O)c1cc2cnc(Nc3ccc(N4CCC5(CCNCC5)CC4)cn3)nn2c1C1=CCCC1 [Example 33] | < 100 | < 500
CN(C)C(=O)c1cc2cnc(Nc3ccc(N4CCNCC4)cn3)nn2c1-c1ccc(Cl)cc1 [Example 34] | < 100 | < 500
CN(C)C(=O)c1cc2cnc(Nc3ccc(N4CCC5(CC4)CC5)cn3)nn2c1C1=CCCC1 [Example 35] | 100 to 1000 | 500 to 2500
CN(C)C(=O)c1cc2cnc(Nc3ccc(N4CCNCC4)cn3)nn2c1-c1cccnc1 [Example 36] | 100 to 1000 | –
CN(C)C(=O)c1cc2cnc(Nc3ccc(N4CCC5(CC4)OCCO5)cn3)nn2c1C1=CCCC1 [Example 37] | < 100 | 500 to 2500
CN(C)C(=O)c1cc2cnc(Nc3ccc(N4CCC5(CC4)COC5)cn3)nn2c1C1=CCCC1 [Example 38] | < 100 | < 500
CN(C)C(=O)c1cc2cnc(Nc3ccc(N4CC5(CCNC5)C4)cn3)nn2c1C1=CCCC1 [Example 39] | < 100 | < 500
CN(C)C(=O)c1cc2cnc(Nc3ccc(N4CC5(CNC5)C4)cn3)nn2c1C1=CCCC1 [Example 40] | < 100 | < 500

Compound | IC50 [1] [nM] | IC50 [2] [nM]
CN(C)C(=O)c1cc2cnc(Nc3ccc(N4CCC5(CC4)CNC5)cn3)nn2c1C1=CCCC1 [Example 41] | < 100 | < 500
COc1ccc(-c2c(C(=O)N(C)C)cc3cnc(Nc4ccc(N5CCNCC5)cn4)nn23)cc1 [Example 42] | < 100 | < 500
CN(C)C(=O)c1cc2cnc(Nc3ccc(N4CCC5(CCNCC5)C4)cn3)nn2c1-c1ccc(Cl)cc1 [Example 43] | < 100 | 500 to 2500
COCCOc1ccc(-c2c(C(=O)N(C)C)cc3cnc(Nc4ccc(N5CCC6(CC5)CNC6)cn4)nn23)cc1 [Example 48] | < 100 | –
CN(C)C(=O)c1cc2cnc(Nc3ccc(N4CCNCC4)cn3)nn2c1-c1cnn(C)c1 [Example 56] | 100 to 1000 | –
CN(C)C(=O)c1cc2cnc(Nc3ccc(N4CC5(CNC5)C4)cn3)nn2c1-c1ccncc1 [Example 61] | < 100 | –
COc1cc(F)ccc1-c1c(C(=O)N(C)C)cc2cnc(Nc3ccc(N4CCC5(CC4)CNC5)cn3)nn12 [Example 62] | 100 to 1000 | –
CN(C)C(=O)c1cc2cnc(Nc3ccc(N4CCC5(CC4)CNC5)cn3)nn2c1-c1ccncc1 [Example 63] | < 100 | –
CN(C)C(=O)c1cc2cnc(Nc3ccc(N4CCC5(CC4)CNC5)cn3)nn2c1-c1cnn(C)c1 [Example 64] | 100 to 1000 | –
CN(C)C(=O)c1cc2cnc(Nc3ccc(N4CC5(CNC5)C4)cn3)nn2c1-c1cnn(C)c1 [Example 66] | < 100 | –
Cc1nn(C)cc1-c1c(C(=O)N(C)C)cc2cnc(Nc3ccc(N4CC5(CNC5)C4)cn3)nn12 [Example 67] | 100 to 1000 | –
CN(C)C(=O)c1cc2cnc(Nc3ccc(N4CC5(CCNC5)C4)cn3)nn2c1-c1cnn(C)c1 [Example 70] | < 100 | –
Cn1cc(-c2cc3cnc(Nc4ccc(N5CCNCC5)cn4)nn3c2C2=CCCC2)ncc1=O [Example 77] | 100 to 1000 | –
Cn1cc(-c2cc3cnc(Nc4ccc(N5CCNCC5)cn4)nn3c2N2CCOCC2)cn1 [Example 79] | < 100 | –
Cn1ccc(-c2cc3cnc(Nc4ccc(N5CCNCC5)cn4)nn3c2C2=CCCC2)cc1=O [Example 80] | < 100 | –
COc1ccc(-c2c(-c3cnn(C)c3)c(-c3ccc(OC)cc3)n3nc(Nc4ccc(N5CCNCC5)cn4)ncc23)cc1 [Reference Example 129, reference compound] | > 3000 | –
Cn1cc(-c2c(C3=CCCC3)c3cnc(Nc4ccc(N5CCNCC5)cn4)nn3c2C2=CCCC2)cn1 [Reference Example 130, reference compound] | 1000 to 3000 | –

Other lines, results leading:

IC50 [1] [nM] | IC50 [2] [nM] | Compound
< 100 | < 500 | N#Cc1cc2cnc(Nc3ccc(N4CCNCC4)cc3)nn2c1Br [Example 1]
< 100 | < 500 | N#Cc1cc2cnc(Nc3ccc(N4CCNCC4)cc3)nn2c1C1=CCCC1 [Example 2]
< 100 | < 500 | N#Cc1cc2cnc(Nc3ccc(N4CCNCC4)cc3)nn2c1-c1ccccc1 [Example 3]
< 100 | < 500 | N#Cc1cc2cnc(Nc3ccc(N4CCNCC4)cc3)nn2c1N1CCCC1 [Example 6]
< 100 | < 500 | N#Cc1cc2cnc(Nc3ccc(N4CCNCC4)cc3)nn2c1-c1ccc(Cl)cc1 [Example 7]
< 100 | 500 to 2500 | Cn1cc(-c2c(Br)c3cnc(Nc4ccc(N5CCNCC5)cc4)nn3c2Br)cn1 [Example 8]
< 100 | < 500 | COc1ccc(-c2c(C#N)cc3cnc(Nc4ccc(N5CCNCC5)cc4)nn23)cc1 [Example 9]
< 100 | < 500 | COc1ccccc1-c1c(C#N)cc2cnc(Nc3ccc(N4CCNCC4)cc3)nn12 [Example 10]
< 100 | < 500 | COc1cc(F)ccc1-c1c(C#N)cc2cnc(Nc3ccc(N4CCNCC4)cc3)nn12 [Example 11]
< 100 | < 500 | N#Cc1cc2cnc(Nc3ccc(N4CCNCC4)cc3)nn2c1-c1cccnc1 [Example 12]
< 100 | < 500 | N#Cc1cc2cnc(Nc3ccc(N4CCNCC4)cc3)nn2c1-c1ccc(F)cc1 [Example 13]
< 100 | < 500 | N#Cc1cc2cnc(Nc3ccc(N4CCNCC4)cc3)nn2c1-c1ccc2ccccc2c1 [Example 14]
< 100 | 500 to 2500 | N#Cc1cc2cnc(Nc3ccc(N4CCNCC4)cc3)nn2c1N1CCC2(CCNCC2)CC1 [Example 16]
< 100 | < 500 | N#Cc1cc2cnc(Nc3ccc(N4CCNCC4)cc3)nn2c1N1CCC2(CCCCC2)C1 [Example 17]
< 100 | < 500 | COc1ccc(-c2c(C#N)cc3cnc(Nc4ccc(N5CCNCC5)cc4)nn23)cn1 [Example 18]
< 100 | 500 to 2500 | COc1ccc(-c2c(-c3cnn(C)c3)cc3cnc(Nc4ccc(N5CCNCC5)cn4)nn23)cc1 [Example 19]
< 100 | < 500 | N#Cc1cc2cnc(Nc3ccc(N4CCNCC4)cn3)nn2c1-c1ccc(Cl)cc1 [Example 24]
< 100 | < 500 | N#Cc1cc2cnc(Nc3ccc(N4CCNCC4)cn3)nn2c1C1=CCCC1 [Example 25]
< 100 | < 500 | N#Cc1cc2cnc(Nc3ccc(N4CCNCC4)cn3)nn2c1N1CCCC1 [Example 26]
< 100 | < 500 | CN(C)C(=O)c1cc2cnc(Nc3ccc(N4CCNCC4)cn3)nn2c1C1=CCCC1 [Example 28]
< 100 | < 500 | CN(C)C(=O)c1cc2cnc(Nc3ccc(N4CCNCC4)cn3)nn2c1N1CCCC1 [Example 29]
< 100 | < 500 | CN(C)C(=O)c1cc2cnc(Nc3ccc(N4CCNCC4)cn3)nn2c1N1CCCCC1 [Example 31]
